In patent US20090170834A1, “Fused Pyrimidones and Thiopyrimidones, and Uses Thereof” (PROLEXYS PHARMACEUTICALS, INC., priority 2005, published 2009):

tested on: engineered tumorigenic cells; assay: Sytox primary screen, inhibition of growth of tumorigenic cells; format: cell-based; settings: Homo sapiens; compound in DMSO, 48 hours exposure, Sytox readout
Experimental: The ability of Compounds 1 and 2, dissolved in DMSO, to inhibit the growth of normal and tumorigenic cells was measured. The compounds were assayed by the Sytox primary screen, a phenotypic assay which monitors alterations in cell survival-proliferation as a result of compound treatment. It was devised as high throughput method to identify compounds which specifically alter the growth potential of cells harboring the causative mutations found in cancer patients while not affecting the growth of normal cells. The assay relies upon an inexpensive, simple and reliable readout of a membrane impermeable fluorescent dye (Sytox, from Molecular Probes) which binds to nucleic acid. In healthy cells, no signal is detected because the cell's membrane is intact and the dye will not enter. However, if a cell's membrane is compromised as a result of apoptosis or necrosis, a fluorescent signal proportional to the number of similarly affected cells will be detected. By utilizing a two-step readout (final read in the presence of detergent to permit labeling of all cells), the assay can identify compounds which produce cytostasis, cytotoxicity and/or mitogenesis. The first read or “dead cell” read, provides an estimate of the toxicity of a given compound by indicating the number of dead or dying cells in the culture at the time of assay. […]

Row | Structure (SMILES) | IC50 [nM]
1 | CCOc1ccccc1-n1c(C(C)N2CCN(C(=O)COc3ccc(Cl)cc3)CC2)nc2ccncc2c1=O (stereo not drawn) [Compound 1, 2-(1-(4-(2-(4-chlorophenoxy)acetyl)piperazin-1-yl)ethyl)-3-(2-ethoxyphenyl)pyrido[4,5-d]pyrimidin-4(3H)-one] | ~10000
2 | CCOc1ccccc1-n1c(C(C)N2CCN(C(=O)COc3ccc(Cl)cc3)CC2)nc2c(cnn2-c2ccccc2)c1=O (stereo not drawn) [Compound 2, 6-(1-(4-(2-(4-chlorophenoxy)acetyl)piperazin-1-yl)ethyl)-5-(2-ethoxyphenyl)-1-phenyl-1H-pyrazolo[3,4-d]pyrimidin-4(5H)-one] | ~10000

tested on: HT-1080 cells; assay: Inhibition of growth of HT-1080 cells (Sytox assay); format: cell-based; settings: Homo sapiens; HT-1080 fibrosarcoma cells, N-ras codon 12 mutation; compound in DMSO, 48 hours exposure
Experimental: The ability of Compounds 1 and 2, dissolved in DMSO, to inhibit the growth of normal and tumorigenic cells was measured. The compounds were assayed by the Sytox primary screen, a phenotypic assay which monitors alterations in cell survival-proliferation as a result of compound treatment. It was devised as high throughput method to identify compounds which specifically alter the growth potential of cells harboring the causative mutations found in cancer patients while not affecting the growth of normal cells. The assay relies upon an inexpensive, simple and reliable readout of a membrane impermeable fluorescent dye (Sytox, from Molecular Probes) which binds to nucleic acid. In healthy cells, no signal is detected because the cell's membrane is intact and the dye will not enter. However, if a cell's membrane is compromised as a result of apoptosis or necrosis, a fluorescent signal proportional to the number of similarly affected cells will be detected. By utilizing a two-step readout (final read in the presence of detergent to permit labeling of all cells), the assay can identify compounds which produce cytostasis, cytotoxicity and/or mitogenesis. The first read or “dead cell” read, provides an estimate of the toxicity of a given compound by indicating the number of dead or dying cells in the culture at the time of assay. The second read or “total cell” read, captures both the cumulative effects of cytoxicity in reducing the size of the cell population as well as any cytostatic or anti-proliferative effects a test compound may exert on the cells in the test population in the absence of toxicity.
Cells were seeded overnight in 96 well plates at densities that without treatment would permit 95% confluence in the wells 72 hours later. The following day, the cells were exposed to test compounds in a dilution series for a period of 48 hours. Following this incubation period, the Sytox reagent was added to the cultures at the manufacturer's recommended concentration and the dead cell fluorescence read was taken. After completion of this measurement, the detergent Saponin was added to each well of the cultures to permeabilize the membranes allowing the Sytox reagent to enter every cell, thereby facilitating measurement of the total number of cells remaining in the culture.
The ability of various compounds of the invention, in DMSO, to inhibit the growth of HT-1080 cells was measured. The HT-1080 cell line used in these experiments was derived from a patient with fibrosarcoma and harbors an activating mutation in the N-ras gene at codon 12. The compound was assayed using the assay described in Example 6. The results of the assay are shown in the table below, where the activity corresponds to the following ranges: A—less than 10 nM, B—10-100 nM, C—100-1000 nM, D—1000-2000 nM, E—greater than 2000 nM.

Row | Structure (SMILES) | IC50 [nM]
3 | CCOc1ccccc1-n1c(CN2CCCNCC2)nc2sccc2c1=O [Compound 5, 2-((1,4-diazepan-1-yl)methyl)-3-(2-ethoxyphenyl)thieno[2,3-d]pyrimidin-4(3H)-one] | < 10
4 | CCOc1ccccc1-n1c(CN2CCNCC2)nc2c(cnn2-c2ccccc2)c1=O [Compound 3, 5-(2-ethoxyphenyl)-1-phenyl-6-(piperazin-1-ylmethyl)-1H-pyrazolo[3,4-d]pyrimidin-4(5H)-one] | > 2000
5 | CCOc1ccccc1-n1c(CN2CCCN(C)CC2)nc2cnccc2c1=O [Compound 9, 3-(2-ethoxyphenyl)-2-((4-methyl-1,4-diazepan-1-yl)methyl)pyrido[3,4-d]pyrimidin-4(3H)-one] | > 2000
6 | CCOc1ccccc1-n1c(CN2CCNCC2)nc2cnccc2c1=O [Compound 8, 3-(2-ethoxyphenyl)-2-(piperazin-1-ylmethyl)pyrido[3,4-d]pyrimidin-4(3H)-one] | > 2000
7 | CCOc1ccccc1-n1c(CN2CCCN(CC)CC2)nc2sccc2c1=O [Compound 7, 3-(2-ethoxyphenyl)-2-((4-ethyl-1,4-diazepan-1-yl)methyl)thieno[2,3-d]pyrimidin-4(3H)-one] | 10 to 100
8 | CCOc1ccccc1-n1c(CN2CCNCC2)nc2sccc2c1=O [Compound 4, 3-(2-ethoxyphenyl)-2-(piperazin-1-ylmethyl)thieno[2,3-d]pyrimidin-4(3H)-one] | 100 to 1000
9 | CCOc1ccccc1-n1c(CN2CCCN(C)CC2)nc2sccc2c1=O [Compound 6, 3-(2-ethoxyphenyl)-2-((4-methyl-1,4-diazepan-1-yl)methyl)thieno[2,3-d]pyrimidin-4(3H)-one] | < 10
